# Measurements reported in patent US20040110825A1, “Method for treating sepsis” (priority 2003, published 2004).
# Key:
# [1] = tested on: patients with severe sepsis; assay: Phase 2 multicenter, double-blind, placebo-controlled trial: 28-day all-cause mortality; format: in vivo, human; details: for effect on mortality compared to placebo: administration started within 24 hours after first organ failure, continued up to 7 days
# Protocol: FIG. 3 represents a plot of 28-day mortality by treatment (Y-axis) against time after first organ failure at which a sPLA2 inhibitor compound of formula I was administered (X-axis). […] Administration of a “high dose” of sPLA2 inhibitor compound of formula (I), at the same time frame (i.e., less than 12 hours after first organ failure) was associated with a mortality of 5.4% (bar 3). […] The efficacy of a sPLA2 inhibitor administered at 0-24 hours, preferably 0-12 hours, after first organ failure is particularly significant when a “high dose” sPLA2 inhibitor compound is administered.
# The data were analyzed using the Cochran-Mantel-Haenszel test adjusted for the trial primary stratification factors at a two-sided 5% significance level. The overall treatment effect as well as for pair-wise comparisons were analyzed.
# Study participants were included in the study if they met all of the criteria listed below. It is anticipated that almost all patients meeting these criteria would have been in an acute care area of the hospital such as an intensive care unit, step-down unit, emergency ward, or recovery room. The events satisfying these inclusion criteria must have been attributable to the onset of sepsis and not attributable to an underlying disease process or to the effects of concomitant therapy.
# [3] Have had at least one of the following sepsis-induced organ failures within the 24-hour time period immediately preceding entry into the study:
# The mortality data from the study are shown in diagrams 1 through 3.
compound,measurement,setting,value
NC(=O)C1CCCc2c1c1cc(OCCCP(=O)(O)O)ccc1n2Cc1ccccc1 (stereo not shown),melting point,,200 to 201 °C
COc1cc(OC)c2c3c(n(Cc4ccccc4)c2c1)CCCC3C(=O)NN (stereo not shown),melting point,,189 to 190 °C
NC(=O)C1CCCc2c1c1cc(OCCCC(=O)O)ccc1n2Cc1ccccc1 (stereo not shown),melting point,,199 to 200 °C
COc1ccc2c(c1)c1c(n2Cc2ccccc2)CCCC1C(N)=O (stereo not shown),melting point,,154 to 156 °C
CCc1cc2c(cc1OCCCP(=O)(O)O)c1c(n2Cc2ccccc2)CCCC1C(N)=O (stereo not shown),melting point,,235 to 238 °C (dec.)
CCc1c(C(=O)C(N)=O)c2c(OCC(=O)O)cccc2n1Cc1ccccc1 [compound (Vb)],effect on mortality compared to placebo,[1],significant reduction in mortality
same,effect on mortality compared to placebo,[1]; listed as LY315920,statistically significant reduction in mortality
same,28 day mortality by treatment,"[1]; high dose (target 800 ng/mL), administered between 12 and 24 hours after first organ failure, FIG. 3 bar 6, placebo 35.1%",31.5%
same,28 day mortality by treatment,"[1]; high dose (target plasma concentration 800 ng/mL), administered less than 12 hours after first organ failure, FIG. 3 bar 3, placebo 42.9%",5.4%
same,28 day mortality by treatment,"[1]; low dose (target 200 ng/mL), administered between 12 and 24 hours after first organ failure, FIG. 3 bar 5, placebo 35.1%",38.2%
same,28 day mortality by treatment,"[1]; low dose (target plasma concentration 200 ng/mL), administered less than 12 hours after first organ failure, FIG. 3 bar 2, placebo 42.9%",19.2%
same,"reduction in mortality, significance","[1]; low dose and high dose administered at 0-12 hours after first organ failure, Cochran-Mantel-Haenszel test, two-sided 5%",statistically significant
CCCCCCCCc1cc2c(cc1OCCCP(=O)(O)O)c1c(n2Cc2ccccc2)CCCC1C(N)=O (stereo not shown),melting point,,160 to 162 °C
